Laboratory results from patent US4863874A, “Method for detecting phosphatidylinositol through binding to Concanavalin A” (The United States of America as represented by the …, priority 1986, dated 1989).
Read-outs that look alike come from different tables or passages of the source.

How the values were obtained:
[1] = target: T1, Con A (Canavalia ensiformis, UniProt P02866); assay: Inhibition of Con A binding to liposomes
T1 construct: purchased Sigma Chemical Co., St. Louis, MO
Procedure: Similar incubations as those described in FIG. 1 were set up with liposomes and Con A. α-MM (FIG. 2a) or myo-inositol (FIG. 2b) were used as inhibitors in the concentrations indicated.
Liposomes containing PL (DMPC, or DMPC/PI) and cholesterol in molar ratios 2/1.5 were used throughout. When PI was included in the liposomes, it was in a 1/1 molar ratio with DMPC. Preparation of liposomes (multilamellar vesicles) is reported in detail (Alving, C. R., Shichijo, S., and Mattsby-Baltzer, I. (1984) in Liposome Technology, (G. Gregoriadis, edition), Vol. II, pages 157-175, CRC, Boca Raton, FL). Briefly, lipids (PLs and cholesterol) were dried in vacuo in pear-shaped flasks and dispersed in a small volume of 0.15M NaCl with the aid of a few acid washed glass beads. The final PL concentration in the aqueous dispersion was 10 mM.
(§1) Studies on the binding of Con A to liposomes were performed as follows: Con A and inhibitors (if present) in the concentrations indicated in the individual figures were incubated with 100 μl of liposomes in a final volume of 1.0 ml of buffer for 45 minutes at 25° C. After incubation, liposomes were washed twice with 2 ml portions of 0.9% NaCl-0.01M NaHCO3 (pH 7.0) and collected by centrifugation at 140,000 g for 5 minutes. Bicarbonate-saline was the buffer used throughout for solution, washing and dilutions. Specific protein binding to liposomes was measured by a Lowry assay adapted to measurement of proteins on liposomes as described previously (Alving, C. R., and Kinsky, S. C. (1971) Immunochemistry, Vol. 8, pages 325-343).
Con A binding to mannose is widely accepted as the major binding specificity for Con A, and inhibition of Con A by α-MM is often used as a criterion for specificity of binding (Lis, H. and Sharon, N. (1973) Ann. Rev. Biochem., Vol. 42, pages 541-574). […] Since Con A binding was increased by the presence of PI in the liposomes we tried to inhibit it by adding increasing concentrations of myo-inositol as a soluble inhibitor. […] Therefore we conclude that the binding of Con A to PI is specific and probably involves the inositol moiety of PI.

[2] = target: T1, Con A; assay: Inhibition of Con A binding to liposomes by mixtures of α-MM and myo-inositol; details: for relative inhibitory potency, PI present in the liposomes: liposomes containing PI; for type of inhibition on simultaneous addition of both inhibitors: simultaneous addition of both inhibitors to Con A and liposomes
Procedure: Similar incubations as those described in FIG. 1 were set up with liposomes and Con A. Myo-inositol and α-MM were mixed together as inhibitors in the concentrations indicated.
as §1
In order to characterize further the binding of Con A to liposomal PLs, and especially to PI, we mixed varying concentrations of α-MM with varrying concentrations of myo-inositol. Our reasoning was that if α-MM and myo-inositol complete for the same binding site we would record similar inhibitions to those shown in FIG. 2. […] The opposite occurred with liposomes lacking PI.

[3] = target: T1, Con A; assay: Binding to Con A by equilibrium dialysis, Scatchard plot
Description: Equilibrium dialysis (microtechnique), as described by Karush, et al. (Karush, F., Karush, S. S. and Eisen, H. N. (1971) in Methods of Immunology and Immunochemistry (C. A. Williams, and M. W. Chase, Edition), Vol. III, pages 383-394, Academic Press, NY) was used to determine the binding of Con A to α-mannose, α-L-fucose, or myo-inositol. The data were plotted according to the method of Scatchard (Scatchard, G. (1949) Ann. N.Y. Acad. Sci., Vol. 51, pages 660-672).
The binding of Con A to α-D-[^3 H]-mannose or myo-[^3 H]-inositol in 0.01M bicarbonate-saline, pH 7.0, at room temperature was investigated by equilibrium dialysis. […] The ratio of the molar concentration of the bound sugar to that of protein is represented by r, c is the molar concentration of free sugar, n is the number of binding sites and K, the binding constant. A molecular weight of 108,000 for Con A was used in the calculations since Con A is a tetramer at neutral pH and the monomer mol wt. is 27,000.

[4] = system: mouse spleen lymphocytes; assay: Suppression of Con A-induced lymphocyte mitogenesis ([3H]-thymidine); assay type: cell-based; details: for DPM × 10^-3 ([3H]-thymidine, DNA synthesis): geometric mean of quadruplicate ±1 S E, no inhibitor 124 ± 10; for inhibition at 40000 µM: Mus musculus, Lymphocyte, read-out: % SUPPRESSION; for inhibition of Con A-induced lymphocyte mitogenesis: added simultaneously with Con A, in words
Description: Mitogenic determination were made on 12 weeks old male C3 HeB/FeJ mouse (Jackson Laboratory, Bar Harbour, ME) spleen cells. The method used for cell preparation and assay of mitogenic activity is described elsewhere (Richardson, E. C., and Alving, C. R. (1984) Rev. Infect. Dis., Vol. 6, pages 532-534). Briefly spleen cells were extracted into HSB (HEM Research Inc., Rockville, MD), purified on a Ficoll-Hypaque solution, washed twice with HBS and suspended in a medium containing Eagles MEM with Earle's salts (GIBCO, Grand Island, NY), penicillin 100 μg/ml and streptomycin 100 μg/ml (GIBCO), 5×10^-5 M 2-mercaptoethanol (Matheson, Coleman and Bell, Norwood, OH) and 5% fetal bovine serum (MBA, Walkersville, MD). Cultures containing 2×10^5 viable cells/0.2 ml were prepared in 96 wells microtiter plates (Linbro Chemical Co., New Haven, CT) containing Con A ([…] Con A protein/ml culture) with either 40 μmoles/ml α-MM or myo-inositol. Cultures were incubated at 37° C. in 5% CO2 and air for 48 hours. Four hours prior to harvesting, the cells were pulsed with 1 μCi of [^3 H]-thymidine, harvested on glass fiber filters with a cell harvester and the radioactivity determined by liquid scintillation.
Cultures containing 2×10^5 mouse spleen lymphocytes in 0.2 ml medium were stimulated with 6 μg Con A/ml in the presence of 40 μmoles/ml of α-MM or myo-inositol and incubated for 48 hours. DNA synthesis was determined by pulsing the cultures 4 hours prior to harvesting with 1 μCi of [^3 H]-thymidine. The values represent the geometric mean of quadruplicate cultures ±1 S E.

[5] = myo-inositol and α-MM simultaneously used, FIG. 4
[6] = 6 μg Con A/ml, 40 μmoles/ml inhibitor, 48 hours

O[C@H]1[C@H](O)[C@@H](O)[C@H](O)[C@@H](O)[C@H]1O [myo-inositol]
IC50 [1]: 10 mM | relative inhibitory potency, PI present in the liposomes [2, 5]: the more potent inhibitor | type of inhibition on simultaneous addition of both inhibitors [2]: non-competitive | Kd [3]: 769 µM | DPM × 10^-3 ([3H]-thymidine, DNA synthesis) [4, 6]: 86 ± 8 DPM × 10^-3 | inhibition at 40000 µM [4, 6]: 31% | inhibition of Con A-induced lymphocyte mitogenesis [4]: significant inhibition was observed

C[C@@H]1O[C@@H](O)[C@@H](O)[C@H](O)[C@@H]1O [α-L-fucose]
inhibition of Con A binding to liposomes containing PI ([1]; increasing concentrations, liposomes containing PI): no inhibition was observed | inhibition of Con A binding to liposomes lacking PI ([1]; increasing concentrations, liposomes lacking PI): no inhibition was observed | binding to Con A ([3]; 0.01M bicarbonate-saline, pH 7.0, room temperature): No binding could be detected | inhibition of Con A-induced lymphocyte mitogenesis [4]: No inhibition

CO[C@H]1O[C@H](CO)[C@@H](O)[C@H](O)[C@@H]1O [α-MM, α-methyl mannoside]
inhibition at 1000 µM ([1]; read-out: inhibition of Con A binding to DMPC liposomes): ~50% | inhibition at 1000 µM ([1]; read-out: inhibition of Con A binding to DMPC/PI liposomes): ~50% | relative inhibitory potency, PI present in the liposomes [2, 5]: could not provide similar inhibition | relative inhibitory potency, PI absent from liposomes ([2]; myo-inositol and α-MM simultaneously used, liposomes lacking PI, FIG. 4): a more potent inhibitor than inositol | type of inhibition on simultaneous addition of both inhibitors [2]: non-competitive | DPM × 10^-3 ([3H]-thymidine, DNA synthesis) [4, 6]: 1.3 ± 0.2 DPM × 10^-3 | inhibition at 40000 µM ([4]; 48 h): 99% | inhibition of Con A-induced lymphocyte mitogenesis [4]: more effective inhibitor than myo-inositol
